US20130137111A1, “DETECTION METHOD OF NOVEL RET FUSION” (Astellas Pharma Inc., priority 2010, published 2013)

Assays:
[1] = system: FLAG-KIF5B-RETv1S/NIH3T3 cells; assay: Anchorage-independent cell growth inhibition in spheroid plate (CellTiter-Glo); type: cell-based; settings: Mus musculus, 120 h, final concentration 1.1 μM, 96-well spheroid plate, cultured 5 days, DMSO = 0%, medium only = 100%, read-out: growth inhibition rate (%)
Description: The measurement (colony method or the like) of anchorage-independent cell growth is known to be a system for examining the anticancer action (pharmacological effect) of a compound (“Clinical Oncology” 2nd edition, Japanese Journal of Cancer & Chemotherapy). As a method that measures the growth of non-adherent cells unlike the colony method, there is a method using a spheroid plate as described above.
In addition, a plate to which only a medium was added was prepared as a […]. […] As a […], DMSO as solvent of the compound was added thereto at the same concentration (0.1%) as the compound. Thereafter, the cells were cultured for 5 days at 37° C. in the presence of 5% CO2, and the cell counting reagent (CellTiter-Gio™ Luminescent Cell Viability Assay; Promega Corporation) was added thereto, followed by stirring for 20 minutes. Thereafter, the cells were measured using a luminescence measurement instrument (Envision; PerkinElmer Inc.). The values of positive control and negative control were regarded as 100% inhibition value and 0% inhibition value respectively to calculate the growth inhibition rate (%) of the respective compounds.

[2] = molecular target: T1, KIF5B-RET fusion polypeptide v1S (Homo sapiens, UniProt P07949); assay: cell-based; settings: NIH3T3, read-out: phosphorylation inhibition rate
T1 sequence (P07949 with tags, fused parts or gaps isoform P07949-2): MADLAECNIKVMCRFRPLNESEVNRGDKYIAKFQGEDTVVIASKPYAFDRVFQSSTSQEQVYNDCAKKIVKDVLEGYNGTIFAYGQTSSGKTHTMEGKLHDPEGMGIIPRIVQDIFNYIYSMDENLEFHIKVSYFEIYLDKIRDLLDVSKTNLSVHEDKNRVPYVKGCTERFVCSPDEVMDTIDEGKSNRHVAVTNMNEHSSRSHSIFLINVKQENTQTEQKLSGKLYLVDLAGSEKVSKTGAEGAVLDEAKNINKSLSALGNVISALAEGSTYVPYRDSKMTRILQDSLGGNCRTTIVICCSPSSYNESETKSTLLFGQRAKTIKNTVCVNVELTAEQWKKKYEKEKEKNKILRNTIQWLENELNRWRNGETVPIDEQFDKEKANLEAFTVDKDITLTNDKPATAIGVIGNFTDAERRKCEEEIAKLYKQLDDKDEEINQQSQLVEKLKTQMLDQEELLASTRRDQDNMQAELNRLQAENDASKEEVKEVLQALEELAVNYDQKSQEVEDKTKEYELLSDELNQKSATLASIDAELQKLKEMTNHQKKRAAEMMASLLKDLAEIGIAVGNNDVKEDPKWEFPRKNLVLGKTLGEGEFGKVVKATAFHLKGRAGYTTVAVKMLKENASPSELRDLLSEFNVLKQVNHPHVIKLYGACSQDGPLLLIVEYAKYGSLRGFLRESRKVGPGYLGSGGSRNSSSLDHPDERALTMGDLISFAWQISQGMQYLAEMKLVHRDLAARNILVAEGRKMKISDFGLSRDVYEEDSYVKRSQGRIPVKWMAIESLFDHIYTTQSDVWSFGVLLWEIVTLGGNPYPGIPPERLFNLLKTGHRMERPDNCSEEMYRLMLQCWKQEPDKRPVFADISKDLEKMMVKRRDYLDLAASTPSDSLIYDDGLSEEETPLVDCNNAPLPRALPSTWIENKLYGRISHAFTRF

inhibition at 1 µM [2] [%]	Compound	inhibition at 1.1 µM [1] [%]
	COc1cc2c(Nc3ccc(Br)cc3F)ncnc2cc1OCC1CCN(C)CC1 [Vandetanib]	83
57	CCN(CC)CCNC(=O)c1c(C)[nH]c(/C=C2\C(=O)Nc3ccc(F)cc32)c1C [Sunitinib]	77
	CNC(=O)c1cc(Oc2ccc(NC(=O)Nc3ccc(Cl)c(C(F)(F)F)c3)cc2)ccn1 [Sorafenib]	96
